Experimental data reported in patent publication US11752125B2, “Anti-neuroinflammatory and protective compounds in Achillea fragrantissima” (THE STATE OF ISRAEL MINISTRY OF AGRICULTURE & RURAL …, priority 2013, dated 2023).

Columns and labels:
N2a neuronal cells = test: SNP-induced ROS elevation in N2a cells; format: cell-based; conditions: TTF 2 μM; SNP 250 μM; 20 h
Protocol: N2a neuronal cells were pre-loaded with DCF-DA for 30 min and washed. TTF (2 μM) was added to cells before (−2 h, −1 h), concomitant with (0) or after (1 h, 2 h) the addition of SNP (250 μM). ROS levels in neuronal cells were measured 20 h after the application of SNP. The results are shown in FIG. 18 and are the mean±SEM of two different experiments (n=15).

CREB = test: H2O2-induced CREB phosphorylation in astrocytes (ELISA); format: cell-based, rat; conditions: astrocytes pretreated 2 h, H2O2 175 μM 30 min; total CREB not affected
Protocol: Astrocytes were treated with TTF 2 h before the addition of H2O2. Cells were lysed 40 minutes after the addition of H2O2 in lysis buffer supplied by PathScan sandwich ELISA kit (Cell Signaling TECHNOLOGY) according to the manufacturer's protocol. Protein concentrations in cell lysates were determined by Bradford reagent (Bio-Rad, Hercules, Calif.), and equal amounts of proteins were subjected to ELISA. To measure the amount of total and phosphoSAPK/JNK in cell lysates of astrocytes, ELISA was performed according to the manufacturer's protocol using the PathScan total SAPK/JNK sandwich ELISA kit (Cell Signaling TECHNOLOGY) and the PathScan phospho-SAPK/JNK (Thr183/Tyr185) sandwich ELISA kit (Cell Signaling TECHNOLOGY), respectively. […] The optical density was determined at 450 nm using a microplate reader.
1. […] Determine the optical density at 450 nm using a microplate reader.
Astrocytes were treated with 175 μM of H2O2 for 30 min following preincubation with TTF for 2 h. The levels of phosphorylated and total CREB were measured by ELISA. […]

p38 = test: H2O2-induced p38 phosphorylation in astrocytes (ELISA); format: cell-based, rat; conditions: astrocytes preincubated 2 h, H2O2 175 μM 40 min
Protocol: Astrocytes were treated with 175 μM of H2O2 for 40 min following preincubation with achillolide A for 2 h. The levels of phosphorylated and total MEK1 (FIG. 40A), phosphorylated and total ERK1/2 (FIG. 40B), phosphorylated SAPK/JNK (FIG. 40C) and phosphorylated p38 (FIG. 40D) were measured by ELISA. The results are means±SEM of two experiments (n=4) for MEK1 and ERK 1/2, one experiment for SAPK/JNK and p38 (n=2). ***p<0.001.

COc1cc(-c2oc3cc(OC)c(OC)c(O)c3c(=O)c2O)ccc1O [TTF, 3,5,4′-trihydroxy-6,7,3′-trimethoxyflavone]
effect on SNP-induced ROS elevation (N2a neuronal cells): attenuates the elevation in ROS levels | inhibition of H2O2-induced phosphorylation of CREB (CREB): 80%

C=C1CCC2=C(CO)C(=O)O[C@H]2/C=C(\C)[C@H](OC(C)=O)CC1=O [achillolide A]
effect on H2O2-induced phosphorylation of p38 (p38): inhibitory effect
